The target in this assay is T1, A. suum ACR-16 nAChR (Asu-ACR-16, homomeric nicotinic acetylcholine receptor) (Ascaris suum, UniProt A0A0K0QSL7).
T1 construct: homomeric receptor expressed from Asu-ACR-16 cRNA in Xenopus laevis oocytes
The assay is described as follows: two-electrode voltage-clamp in Xenopus oocytes, agonist concentration-response. Type of assay: cell-based. A general note: Two-electrode voltage clamp is typically applied to oocytes expressing channels or transporters.

Each structure is given as a SMILES string.

What is called EC50 is the concentration at which the effect is half-maximal. A low value points to an effect from little substance.

T1 sequence (A0A0K0QSL7 entry or part of it): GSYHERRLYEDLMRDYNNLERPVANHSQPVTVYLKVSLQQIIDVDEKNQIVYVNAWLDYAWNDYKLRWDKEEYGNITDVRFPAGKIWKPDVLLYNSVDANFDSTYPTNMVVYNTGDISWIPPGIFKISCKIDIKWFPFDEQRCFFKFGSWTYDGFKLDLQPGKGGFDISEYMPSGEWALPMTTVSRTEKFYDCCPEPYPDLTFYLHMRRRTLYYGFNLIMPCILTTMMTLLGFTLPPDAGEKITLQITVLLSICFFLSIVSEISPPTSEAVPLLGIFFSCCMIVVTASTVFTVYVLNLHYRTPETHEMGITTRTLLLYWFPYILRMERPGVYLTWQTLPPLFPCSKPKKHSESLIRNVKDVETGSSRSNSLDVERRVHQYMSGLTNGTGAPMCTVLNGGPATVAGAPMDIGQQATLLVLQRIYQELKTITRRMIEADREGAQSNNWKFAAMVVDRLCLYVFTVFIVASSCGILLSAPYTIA

As for `CC(=O)OCC[N+](C)(C)C` [acetylcholine], the EC50 is 4.9 ± 1.2 µM.

These data come from article PMC10839021, “Pharmacological effects of monoterpene carveol on the neuromuscular system of nematodes and mammals” (Frontiers in Pharmacology, 2024).
